Experimental data from the NIST ThermoML archive (doi:10.1016/j.jct.2009.06.022).
± gives the expanded uncertainty stated by the source.

Key:
[1] = Crystal; DTA
[2] = Molar enthalpy of transition or fusion; conditions: Crystal; DSC
[3] = molar enthalpy of vaporization or sublimation; conditions: 298.15 K; Crystal; Static calorimetry

Row | Normal melting temperature [1] | Molar enthalpy of transition or fusion [2] | molar enthalpy [3] | SMILES
1 | 76.34 ± 0.44 °C | 5.03 ± 0.139 kcal/mol | 25.6 ± 1.1 kcal/mol | O=C1CC(c2ccccc2)Oc2ccccc21 (stereo unspecified) [2,3-dihydroflavone]
2 | 96.74 ± 0.44 °C | 4.86 ± 0.122 kcal/mol | 25.9 ± 0.813 kcal/mol | O=c1cc(-c2ccccc2)oc2ccccc12 [flavone]
